Several values for one entry are separate records, joined by “and”; a condition that tells them apart may be missing. Equal entries are not always repeated.
Tested on: transgenic T2 Arabidopsis plants
Test: Greenhouse spray of transgenic T2 Arabidopsis plants, herbicide injury 0 to 100% phytotox rating (Table A)
Assay type: in vivo
Details: 14 days after treatment
Procedure: Additionally, transgenic T2 Arabidopsis plants are tested for improved tolerance to herbicides in greenhouse studies with the following herbicides: methyl 2-[2-chloro-5-[3-chloro-5-(trifluoromethyl)-2-pyridyl]-4-fluoro-phenoxy]-2-methoxy-acetate, and photosynthesis inhibitor diuron as negative control.
Table A: Transgenic T2 Arabidopsis plants, four weeks old, were sprayed in the greenhouse with the indicated amount of compound+1% (v/v) MSO. Herbicide injury was evaluated 14 days after treatment with a 0 to 100% phytotox rating scale where 0 is no injury relative to an unsprayed wild type check and 100% is completely dead.

SMILES: COC(=O)C(OC)Oc1cc(-c2ncc(C(F)(F)F)cc2Cl)c(F)cc1Cl (centres unmarked) [methyl 2-[2-chloro-5-[3-chloro-5-(trifluoromethyl)-2-pyridyl]-4-fluoro-phenoxy]-2-methoxy-acetate]
- Herbicide injury, 0 to 100% phytotox rating (construct ALOMY_PPO2 F438I, 50 g ai/ha + 1% (v/v) MSO): 48%
- Herbicide injury, 0 to 100% phytotox rating (construct ALOMY_PPO2 F438I, 100 g ai/ha + 1% (v/v) MSO): 64%
- Herbicide injury, 0 to 100% phytotox rating (construct ALOMY_PPO2 F438I, 200 g ai/ha + 1% (v/v) MSO): 79%
- Herbicide injury, 0 to 100% phytotox rating (construct ALOMY_PPO2 F438M, 50 g ai/ha + 1% (v/v) MSO): 30%
- Herbicide injury, 0 to 100% phytotox rating (construct ALOMY_PPO2 F438M, 100 g ai/ha + 1% (v/v) MSO): 43%
- Herbicide injury, 0 to 100% phytotox rating (construct ALOMY_PPO2 F438M, 200 g ai/ha + 1% (v/v) MSO): 69%
- Herbicide injury, 0 to 100% phytotox rating (construct ALOMY_PPO2 F438V, 50 g ai/ha + 1% (v/v) MSO): 36%
- Herbicide injury, 0 to 100% phytotox rating (construct ALOMY_PPO2 F438V, 100 g ai/ha + 1% (v/v) MSO): 55%
- Herbicide injury, 0 to 100% phytotox rating (construct ALOMY_PPO2 F438V, 200 g ai/ha + 1% (v/v) MSO): 69%
- Herbicide injury, 0 to 100% phytotox rating (construct ALOMY_PPO2 L415A_F438M, 50 g ai/ha + 1% (v/v) MSO): 23%
- Herbicide injury, 0 to 100% phytotox rating (construct ALOMY_PPO2 L415A_F438M, 100 g ai/ha + 1% (v/v) MSO): 28%
- Herbicide injury, 0 to 100% phytotox rating (construct ALOMY_PPO2 L415A_F438M, 200 g ai/ha + 1% (v/v) MSO): 39%
- Herbicide injury, 0 to 100% phytotox rating (construct ALOMY_PPO2 L415E_F438M, 50 g ai/ha + 1% (v/v) MSO): 15%
- Herbicide injury, 0 to 100% phytotox rating (construct ALOMY_PPO2 L415E_F438M, 100 g ai/ha + 1% (v/v) MSO): 29%
- Herbicide injury, 0 to 100% phytotox rating (construct ALOMY_PPO2 L415E_F438M, 200 g ai/ha + 1% (v/v) MSO): 43%
- Herbicide injury, 0 to 100% phytotox rating (construct ALOMY_PPO2 L415G_F438M (two table lines), 50 g ai/ha + 1% (v/v) MSO): 36% and 26%
- Herbicide injury, 0 to 100% phytotox rating (construct ALOMY_PPO2 L415G_F438M (two table lines), 100 g ai/ha + 1% (v/v) MSO): 46% and 34%
- Herbicide injury, 0 to 100% phytotox rating (construct ALOMY_PPO2 L415G_F438M (two table lines), 200 g ai/ha + 1% (v/v) MSO): 59% and 46%
- Herbicide injury, 0 to 100% phytotox rating (construct ALOMY_PPO2 L415Q_F438M, 50 g ai/ha + 1% (v/v) MSO): 18%
- Herbicide injury, 0 to 100% phytotox rating (construct ALOMY_PPO2 L415Q_F438M, 100 g ai/ha + 1% (v/v) MSO): 23%
- Herbicide injury, 0 to 100% phytotox rating (construct ALOMY_PPO2 L415Q_F438M, 200 g ai/ha + 1% (v/v) MSO): 41%
- Herbicide injury, 0 to 100% phytotox rating (construct ALOMY_PPO2 R137L_F438L, 50 g ai/ha + 1% (v/v) MSO): 55%
- Herbicide injury, 0 to 100% phytotox rating (construct ALOMY_PPO2 R137L_F438L, 100 g ai/ha + 1% (v/v) MSO): 59%
- Herbicide injury, 0 to 100% phytotox rating (construct ALOMY_PPO2 R137L_F438L, 200 g ai/ha + 1% (v/v) MSO): 71%
- Herbicide injury, 0 to 100% phytotox rating (construct ALOMY_PPO2 R137L_F438M, 50 g ai/ha + 1% (v/v) MSO): 50%
- Herbicide injury, 0 to 100% phytotox rating (construct ALOMY_PPO2 R137L_F438M, 100 g ai/ha + 1% (v/v) MSO): 68%
- Herbicide injury, 0 to 100% phytotox rating (construct ALOMY_PPO2 R137L_F438M, 200 g ai/ha + 1% (v/v) MSO): 70%
- Herbicide injury, 0 to 100% phytotox rating (construct ALOMY_PPO2 R137L_F438V, 50 g ai/ha + 1% (v/v) MSO): 39%
- Herbicide injury, 0 to 100% phytotox rating (construct ALOMY_PPO2 R137L_F438V, 100 g ai/ha + 1% (v/v) MSO): 58%
- Herbicide injury, 0 to 100% phytotox rating (construct ALOMY_PPO2 R137L_F438V, 200 g ai/ha + 1% (v/v) MSO): 65%
- Herbicide injury, 0 to 100% phytotox rating (construct AMATU_PPO2 L397C_F420M, 50 g ai/ha + 1% (v/v) MSO): 58%
- Herbicide injury, 0 to 100% phytotox rating (construct AMATU_PPO2 L397C_F420M, 100 g ai/ha + 1% (v/v) MSO): 63%
- Herbicide injury, 0 to 100% phytotox rating (construct AMATU_PPO2 L397C_F420M, 200 g ai/ha + 1% (v/v) MSO): 71%
- Herbicide injury, 0 to 100% phytotox rating (construct AMATU_PPO2 L397D_F420V, 50 g ai/ha + 1% (v/v) MSO): 49%
- Herbicide injury, 0 to 100% phytotox rating (construct AMATU_PPO2 L397D_F420V, 100 g ai/ha + 1% (v/v) MSO): 59%
- Herbicide injury, 0 to 100% phytotox rating (construct AMATU_PPO2 L397D_F420V, 150 g ai/ha + 1% (v/v) MSO): 67%
- Herbicide injury, 0 to 100% phytotox rating (construct AMATU_PPO2 L397E_F420M, 50 g ai/ha + 1% (v/v) MSO): 59%
- Herbicide injury, 0 to 100% phytotox rating (construct AMATU_PPO2 L397E_F420M, 100 g ai/ha + 1% (v/v) MSO): 68%
- Herbicide injury, 0 to 100% phytotox rating (construct AMATU_PPO2 L397E_F420M, 200 g ai/ha + 1% (v/v) MSO): 79%
- Herbicide injury, 0 to 100% phytotox rating (construct AMATU_PPO2 L397E_F420V, 50 g ai/ha + 1% (v/v) MSO): 60%
- Herbicide injury, 0 to 100% phytotox rating (construct AMATU_PPO2 L397E_F420V, 100 g ai/ha + 1% (v/v) MSO): 76%
- Herbicide injury, 0 to 100% phytotox rating (construct AMATU_PPO2 L397E_F420V, 200 g ai/ha + 1% (v/v) MSO): 85%
- Herbicide injury, 0 to 100% phytotox rating (construct AMATU_PPO2 L397G_F420M, 50 g ai/ha + 1% (v/v) MSO): 40%
- Herbicide injury, 0 to 100% phytotox rating (construct AMATU_PPO2 L397G_F420M, 100 g ai/ha + 1% (v/v) MSO): 56%
- Herbicide injury, 0 to 100% phytotox rating (construct AMATU_PPO2 L397G_F420M, 200 g ai/ha + 1% (v/v) MSO): 66%
- Herbicide injury, 0 to 100% phytotox rating (construct AMATU_PPO2 L397Q_F420M, 50 g ai/ha + 1% (v/v) MSO): 45%
- Herbicide injury, 0 to 100% phytotox rating (construct AMATU_PPO2 L397Q_F420M, 100 g ai/ha + 1% (v/v) MSO): 61%
- Herbicide injury, 0 to 100% phytotox rating (construct AMATU_PPO2 L397Q_F420M, 200 g ai/ha + 1% (v/v) MSO): 73%
- Herbicide injury, 0 to 100% phytotox rating (construct AMATU_PPO2 L397Q_F420V, 50 g ai/ha + 1% (v/v) MSO): 69%
- Herbicide injury, 0 to 100% phytotox rating (construct AMATU_PPO2 L397Q_F420V, 100 g ai/ha + 1% (v/v) MSO): 66%
- Herbicide injury, 0 to 100% phytotox rating (construct AMATU_PPO2 L397Q_F420V, 200 g ai/ha + 1% (v/v) MSO): 83%
- Herbicide injury, 0 to 100% phytotox rating (construct AMATU_PPO2 R128A_F420V, 50 g ai/ha + 1% (v/v) MSO): 51%
- Herbicide injury, 0 to 100% phytotox rating (construct AMATU_PPO2 R128A_F420V, 100 g ai/ha + 1% (v/v) MSO): 69%

From patent US11149030B2, “Plants having increased tolerance to herbicides” (BASF AGRO B.V., priority 2016, dated 2021)
